Assay results reported in patent publication US7439351B2, “2′ or 3′ -deoxy and 2′, 3′-dideoxy-β-L-pentofuranonucleo-side compounds, method of preparation and application in therapy, especially as anti-viral agents” (The UAB Research Foundation, priority 1993, dated 2008).
pIC50: −log10 of the molar value. “Also recorded” adds a separate entry of the source.

Legend:
[1] = tested on: noninfected CEM-SS cells; experiment: Toxic effect on noninfected cells (formazan formation), CEM-SS; settings: at least 50% inhibition of formazan formation, 5 days
Experimental: (§1) The toxic effect on the noninfected cells is assessed by calorimetric reaction based on the capacity of live cells to reduce 3-(4,5-dimethylthiozol-2-yl)-2,5-diphenyltetrazolium bromide to formazan after incubating for 5 days in the presence of various concentrations of the compounds.

[2] = tested on: noninfected PBM cells; experiment: Toxic effect on noninfected cells (formazan formation), PBM; settings: at least 50% inhibition of formazan formation, 5 days
Experimental: as §1

[3] = tested on: noninfected PBMC; experiment: Toxic effect on noninfected cells (formazan formation), PBMC; settings: at least 50% inhibition of formazan formation, 5 days
Experimental: as §1

[4] = tested on: HIV; settings: CEM cell culture; Mansuri et al. 1991; read-out: IC50 against HIV; cited from earlier work
[5] = tested on: HIV; settings: prior art reports; listed as β-L-DDC; cited from earlier work
[6] = tested on: herpes simplex viruses (HSV); settings: cell cultures; Spadari et al. 1992; cited from earlier work

Row | Structure (SMILES) | CD50 [1] | CD50 [2] | CD50 [3] | pIC50 [4] | activity against HIV (in words) [5] | antiviral activity against HSV (in words) [6]
1 | Cc1cn([C@H]2C[C@H](N=[N+]=[N-])[C@@H](CO)O2)c(=O)[nH]c1=O [AZT, reference compound] | >10^−4 M | 7e-05 M | 8e-05 M |  |  | 
2 | Nc1ccn([C@H]2CC[C@@H](CO)O2)c(=O)n1 [DDC, reference compound] | 6e-05 M | 7e-05 M | 2.5e-05 M |  |  | 
3 | Nc1ccn([C@@H]2CC[C@H](CO)O2)c(=O)n1 [Compound 21a, 2′,3′-dideoxy-β-L-cytidine] | 8.3e-05 M | 10^−4 M | 10^−4 M | 6.18 | relatively limited antiviral activity; also recorded: no activity against HIV | 
4 | Nc1nc(=O)n([C@@H]2CC[C@H](CO)O2)cc1F [Compound 21b, 2′,3′-dideoxy-β-L-5-fluorocytidine] | 9e-05 M | 10^−4 M | 10^−4 M |  |  | 
5 | Cc1cn([C@@H]2C[C@@H](O)[C@H](CO)O2)c(=O)[nH]c1=O [β-L-Thymidine] |  |  |  |  |  | relatively limited antiviral activity
